Source: patent publication US9937183B2, “Antimicrobial compounds and methods of making and using the same” (priority 2013, dated 2018)
≈ marks a conversion by molar mass, not a printed value. Where two headings read alike, the source gives them in different places.

Experiments:
Format in all cases: cell-based
[1] = test system: P. aeruginosa 1705886; assay: MIC, microtiter-based liquid assay (CLSI); settings: Pseudomonas aeruginosa
[2] = test system: B. mallei; assay: microbe, parasite or virus in culture; settings: Burkholderia mallei; for MIC50: read-out: B. mallei MIC50; for MIC90: read-out: B. mallei MIC90; for MIC: read-out: B. mallei MIC Range
[3] = test system: K. pneumoniae 1705966; assay: MIC, microtiter-based liquid assay (CLSI); settings: Klebsiella pneumoniae
[4] = test system: A. baumannii 1705936; assay: MIC, microtiter-based liquid assay (CLSI); settings: Acinetobacter baumannii, MDR strain
[5] = test system: E. faecium A6349 VanA + LNZ-R; assay: MIC, microtiter-based liquid assay (CLSI); settings: Enterococcus faecium
[6] = test system: Y. pestis; assay: microbe, parasite or virus in culture; settings: Yersinia pestis; for MIC50: read-out: Y. pestis MIC50; for MIC90: read-out: Y. pestis MIC90; for MIC: read-out: Y. pestis MIC Range
[7] = test system: E. coli MG1655 parent; assay: MIC, microtiter-based liquid assay (CLSI); settings: Escherichia coli
[8] = test system: F. tularensis; assay: microbe, parasite or virus in culture; settings: Francisella tularensis; for MIC50: read-out: F. tularensis MIC50; for MIC90: read-out: F. tularensis MIC90; for MIC: read-out: F. tularensis MIC Range
[9] = test system: S. aureus 11540 MRSA; assay: MIC, microtiter-based liquid assay (CLSI); settings: Staphylococcus aureus
[10] = test system: B. anthracis; assay: microbe, parasite or virus in culture; settings: Bacillus anthracis; for MIC50: read-out: B. anthracis MIC50; for MIC90: read-out: B. anthracis MIC90; for MIC: read-out: B. anthracis MIC Range
[11] = test system: P. aeruginosa ATCC27853; assay: MIC, microtiter-based liquid assay (CLSI); settings: Pseudomonas aeruginosa
[12] = test system: A. baumannii 1705943; assay: MIC, microtiter-based liquid assay (CLSI); settings: Acinetobacter baumannii
[13] = test system: E. coli 1705878; assay: MIC, microtiter-based liquid assay (CLSI); settings: Escherichia coli, MDR strain
[14] = test system: S. pneumoniae 02J1175 Mef(A); assay: MIC, microtiter-based liquid assay (CLSI); settings: Streptococcus pneumoniae
[15] = test system: B. pseudomallei; assay: microbe, parasite or virus in culture; settings: Burkholderia pseudomallei; for MIC50: read-out: B. pseudomallei MIC50; for MIC90: read-out: B. pseudomallei MIC90; for MIC: read-out: B. pseudomallei MIC Range
[16] = test system: K. pneumoniae 1705949; assay: MIC, microtiter-based liquid assay (CLSI); settings: Klebsiella pneumoniae, MDR strain
[17] = test system: E. coli CAG12184 TolC; assay: MIC, microtiter-based liquid assay (CLSI); settings: Escherichia coli, CAG12184TOLC
[18] = test system: E. coli ATCC25922; assay: MIC, microtiter-based liquid assay (CLSI); settings: Escherichia coli
[19] = test system: P. aeruginosa 1705904; assay: MIC, microtiter-based liquid assay (CLSI); settings: Pseudomonas aeruginosa, MDR strain
[20] = ATCC25922, read-out: MIC E. coli ATCC25922 + 50% HS
[21] = ATCC25922, read-out: MIC E. coli ATCC25922

Row | SMILES | MIC [1] | MIC50 [2] | MIC90 [2] | MIC [2] | MIC [3] | MIC [4] | MIC [5] | MIC50 [6] | MIC90 [6] | MIC [6] | MIC [7] | MIC50 [8] | MIC90 [8] | MIC [8] | MIC [9] | MIC50 [10] | MIC90 [10] | MIC [10] | MIC [11] | MIC [12] | other results
1 | C[C@H](N)CCCc1cc(Cl)c(F)c(-c2cc3cn(-c4ccc([C@H](CCNc5nccs5)NCCCNC(=N)N)cc4)c(=O)nc3[nH]2)c1 [Compound 15] | 4 µg/mL (≈ 5.89 µM) | 0.06 µg/mL (≈ 0.0883 µM) | 0.25 µg/mL (≈ 0.368 µM) | 0.03 to 0.5 µg/mL (≈ 0.0442 to 0.736 µM) | 0.25 µg/mL (≈ 0.368 µM) | 1 µg/mL (≈ 1.47 µM) | 2 µg/mL | 0.5 µg/mL (≈ 0.736 µM) | 1 µg/mL (≈ 1.47 µM) | 0.06 to 1 µg/mL (≈ 0.0883 to 1.47 µM) | 1 µg/mL (≈ 1.47 µM) | 0.06 µg/mL (≈ 0.0883 µM) | 0.25 µg/mL (≈ 0.368 µM) | 0.03 to 2 µg/mL (≈ 0.0442 to 2.94 µM) | 0.5 µg/mL (≈ 0.736 µM) | 0.12 µg/mL (≈ 0.177 µM) | 0.12 µg/mL (≈ 0.177 µM) | 0.03 to 0.25 µg/mL (≈ 0.0442 to 0.368 µM) | 8 µg/mL (≈ 11.8 µM) | 0.5 µg/mL (≈ 0.736 µM) | MIC [13]: 2 µg/mL (≈ 2.94 µM); MIC [14]: 0.25 µg/mL (≈ 0.368 µM); MIC50 [15]: 8 µg/mL (≈ 11.8 µM); MIC90 [15]: 16 µg/mL (≈ 23.6 µM); MIC [15]: 4 to 32 µg/mL (≈ 5.89 to 47.1 µM); MIC [16]: 1 µg/mL (≈ 1.47 µM); MIC [17]: 0.25 µg/mL (≈ 0.368 µM); MIC [18, 20]: 0.5 µg/mL; MIC [18, 21]: 0.5 µg/mL (≈ 0.736 µM); MIC [19]: 8 µg/mL (≈ 11.8 µM)
2 | C[C@H](N)CCCc1cc(-c2cc3cn(-c4ccc(CNCCCNC(=N)N)cc4)c(=O)nc3[nH]2)c(F)c(Cl)c1F [Compound 13] | 2 µg/mL (≈ 3.5 µM) | ≤ 0.03 µg/mL | 0.06 µg/mL (≈ 0.105 µM) | 0.03 to 0.25 µg/mL (≈ 0.0525 to 0.438 µM) | 0.25 µg/mL (≈ 0.438 µM) | 4 µg/mL (≈ 7 µM) | 0.5 µg/mL | 0.06 µg/mL (≈ 0.105 µM) | 0.12 µg/mL (≈ 0.21 µM) | 0.03 to 0.25 µg/mL (≈ 0.0525 to 0.438 µM) | 0.25 µg/mL (≈ 0.438 µM) | ≤ 0.03 µg/mL | ≤ 0.03 µg/mL | 0.03 to 0.5 µg/mL (≈ 0.0525 to 0.876 µM) | 0.25 µg/mL (≈ 0.438 µM) | ≤ 0.03 µg/mL | 0.12 µg/mL (≈ 0.21 µM) | 0.03 to 0.12 µg/mL (≈ 0.0525 to 0.21 µM) | 2 µg/mL (≈ 3.5 µM) | 0.25 µg/mL (≈ 0.438 µM) | MIC [13]: 0.25 µg/mL (≈ 0.438 µM); MIC [14]: 0.25 µg/mL (≈ 0.438 µM); MIC50 [15]: 4 µg/mL (≈ 7 µM); MIC90 [15]: 8 µg/mL (≈ 14 µM); MIC [15]: 0.5 to 16 µg/mL (≈ 0.876 to 28 µM); MIC [16]: 0.5 µg/mL (≈ 0.876 µM); MIC [17]: 0.25 µg/mL (≈ 0.438 µM); MIC [18, 20]: 0.25 µg/mL; MIC [18, 21]: 0.25 µg/mL (≈ 0.438 µM); MIC [19]: 4 µg/mL (≈ 7 µM)
3 | C[C@H](N)CCCc1cc(OC(F)(F)F)c(F)c(-c2cc3cn(-c4ccc([C@H](C)NCCCNC(=N)N)cc4)c(=O)nc3[nH]2)c1 [Compound 3] | 4 µg/mL (≈ 6.49 µM) | 0.06 µg/mL (≈ 0.0973 µM) | 0.12 µg/mL (≈ 0.195 µM) | 0.03 to 0.5 µg/mL (≈ 0.0486 to 0.811 µM) | 0.25 µg/mL (≈ 0.405 µM) | 2 µg/mL (≈ 3.24 µM) | 2 µg/mL | 0.25 µg/mL (≈ 0.405 µM) | 0.5 µg/mL (≈ 0.811 µM) | 0.03 to 1 µg/mL (≈ 0.0486 to 1.62 µM) | 0.5 µg/mL (≈ 0.811 µM) | ≤ 0.03 µg/mL | 0.12 µg/mL (≈ 0.195 µM) | 0.03 to 1 µg/mL (≈ 0.0486 to 1.62 µM) | 0.25 µg/mL (≈ 0.405 µM) | 0.25 µg/mL (≈ 0.405 µM) | 0.25 µg/mL (≈ 0.405 µM) | 0.03 to 2 µg/mL (≈ 0.0486 to 3.24 µM) | 8 µg/mL (≈ 13 µM) | 0.25 µg/mL (≈ 0.405 µM) | MIC [13]: 0.5 µg/mL (≈ 0.811 µM); MIC [14]: 0.25 µg/mL (≈ 0.405 µM); MIC50 [15]: 2 µg/mL (≈ 3.24 µM); MIC90 [15]: 4 µg/mL (≈ 6.49 µM); MIC [15]: 0.5 to 8 µg/mL (≈ 0.811 to 13 µM); MIC [16]: 1 µg/mL (≈ 1.62 µM); MIC [17]: 0.25 µg/mL (≈ 0.405 µM); MIC [18, 20]: 0.5 µg/mL; MIC [18, 21]: 0.25 µg/mL (≈ 0.405 µM); MIC [19]: 8 µg/mL (≈ 13 µM)
4 | CC[C@H]1OC(=O)[C@H](C)[C@@H](O[C@H]2C[C@@](C)(OC)[C@@H](O)[C@H](C)O2)[C@H](C)[C@@H](O[C@@H]2O[C@H](C)C[C@H](N(C)C)[C@H]2O)[C@](C)(O)C[C@@H](C)CN(C)[C@H](C)[C@@H](O)[C@]1(C)O [Azithromycin, reference compound] | – | 0.5 µg/mL (≈ 0.668 µM) | 1 µg/mL (≈ 1.34 µM) | 0.12 to 1 µg/mL (≈ 0.16 to 1.34 µM) | – | – | – | – | – | – | – | – | – | – | – | – | – | – | – | – | –
5 | C[C@H](NCCCNC(=N)N)c1ccc(-n2cc3cc(-c4cc(CCC5(CN)CC5)cc(Cl)c4F)[nH]c3nc2=O)cc1 [Compound 4] | 2 µg/mL (≈ 3.45 µM) | ≤ 0.03 µg/mL | 0.12 µg/mL (≈ 0.207 µM) | 0.03 to 0.5 µg/mL (≈ 0.0518 to 0.863 µM) | 0.25 µg/mL (≈ 0.432 µM) | 4 µg/mL (≈ 6.91 µM) | 4 µg/mL | 0.25 µg/mL (≈ 0.432 µM) | 0.25 µg/mL (≈ 0.432 µM) | 0.03 to 0.5 µg/mL (≈ 0.0518 to 0.863 µM) | 0.25 µg/mL (≈ 0.432 µM) | ≤ 0.03 µg/mL | ≤ 0.03 µg/mL | 0.03 to 1 µg/mL (≈ 0.0518 to 1.73 µM) | 0.25 µg/mL (≈ 0.432 µM) | 0.5 µg/mL (≈ 0.863 µM) | 0.5 µg/mL (≈ 0.863 µM) | 0.06 to 4 µg/mL (≈ 0.104 to 6.91 µM) | 4 µg/mL (≈ 6.91 µM) | 0.25 µg/mL (≈ 0.432 µM) | MIC [13]: 0.5 µg/mL (≈ 0.863 µM); MIC [14]: 0.5 µg/mL (≈ 0.863 µM); MIC50 [15]: 2 µg/mL (≈ 3.45 µM); MIC90 [15]: 4 µg/mL (≈ 6.91 µM); MIC [15]: 0.5 to 8 µg/mL (≈ 0.863 to 13.8 µM); MIC [16]: 1 µg/mL (≈ 1.73 µM); MIC [17]: 0.25 µg/mL (≈ 0.432 µM); MIC [18, 20]: 0.5 µg/mL; MIC [18, 21]: 0.125 µg/mL (≈ 0.216 µM); MIC [19]: 4 µg/mL (≈ 6.91 µM)
